Measured values published in PubChem BioAssay AID2060611 (Molecular Pharmacology Branch, DTP, NCI, 2025).
Where “and” joins values, the source holds several entries; their conditions need not be identical. Equal values may be shown once.

Tested on: 628569-122-R-J1-PDC complex spheroid viability
Assay: Anticancer human tumor 628569-122-R-J1-PDC patient-derived head and neck squamous carcinoma cell line growth inhibition [CLK]
Settings: for viability, T/C: stronger effect = lower value; active = viability on the fitted dose curve at most 10% of control; inactive = the rest
Outline: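 Patient-derived tumor cells grown as complex spheroids with HUVEC endothelial cells and mesenchymal stem cells, treated with drug combinations. Concentrations descend in half-log steps from near clinical Cmax, or from 10 microM if Cmax unknown.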

[1] = curve of first compound, second compound 0.0316 µM
[2] = curve of first compound, second compound 0.1 µM
[3] = curve of first compound, second compound 0.316 µM
[4] = curve of first compound, second compound 1 µM
[5] = curve of first compound, second compound 3.16 µM
[6] = curve of first compound, second compound 10 µM
[7] = second compound 0.0316 µM, first compound 0.0316 µM
[8] = second compound 0.0316 µM, first compound 0.1 µM
[9] = second compound 0.0316 µM, first compound 0.316 µM
[10] = second compound 0.0316 µM, first compound 1 µM
[11] = second compound 0.0316 µM, first compound 3.16 µM
[12] = second compound 0.0316 µM, first compound 10 µM
[13] = second compound 0.1 µM, first compound 0.0316 µM
[14] = second compound 0.1 µM, first compound 0.1 µM
[15] = second compound 0.1 µM, first compound 0.316 µM
[16] = second compound 0.1 µM, first compound 1 µM
[17] = second compound 0.1 µM, first compound 3.16 µM
[18] = second compound 0.1 µM, first compound 10 µM
[19] = second compound 0.316 µM, first compound 0.0316 µM
[20] = second compound 0.316 µM, first compound 0.1 µM
[21] = second compound 0.316 µM, first compound 0.316 µM
[22] = second compound 0.316 µM, first compound 1 µM
[23] = second compound 0.316 µM, first compound 3.16 µM
[24] = second compound 0.316 µM, first compound 10 µM
[25] = second compound 1 µM, first compound 0.0316 µM
[26] = second compound 1 µM, first compound 0.1 µM
[27] = second compound 1 µM, first compound 0.316 µM
[28] = second compound 1 µM, first compound 1 µM
[29] = second compound 1 µM, first compound 3.16 µM
[30] = second compound 1 µM, first compound 10 µM
[31] = second compound 3.16 µM, first compound 0.0316 µM
[32] = second compound 3.16 µM, first compound 0.1 µM
[33] = second compound 3.16 µM, first compound 0.316 µM
[34] = second compound 3.16 µM, first compound 1 µM
[35] = second compound 3.16 µM, first compound 3.16 µM
[36] = second compound 3.16 µM, first compound 10 µM
[37] = second compound 10 µM, first compound 0.0316 µM
[38] = second compound 10 µM, first compound 0.1 µM
[39] = second compound 10 µM, first compound 0.316 µM
[40] = second compound 10 µM, first compound 1 µM
[41] = second compound 10 µM, first compound 3.16 µM
[42] = second compound 10 µM, first compound 10 µM
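Note: spheroids exposed to agents for seven days before readout.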
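Throughout, for viability, T/C: 100% = DMSO vehicle control viability.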

Cn1ncnc1[C@H]1c2n[nH]c(=O)c3cc(F)cc(c23)N[C@@H]1c1ccc(F)cc1
> 0.1 µM: IC50 (curve of compound)
inactive: viability, T/C (compound 0.000316 µM) 90.7% and 78.8% | viability, T/C (compound 0.001 µM) 96.5% and 103% | viability, T/C (compound 0.00316 µM) 97.3% and 61.4% | viability, T/C (compound 0.01 µM) 89.6% and 93.2% | viability, T/C (compound 0.0316 µM) 67.8% and 81.5% | viability, T/C (compound 0.1 µM) 69.2% and 63.6%

C#Cc1c(F)ccc2cc(O)cc(-c3ncc4c(N5CC6CCC(C5)N6)nc(OCC56CCCN5CC(F)C6)nc4c3F)c12 (configuration not stated) + CNC(=O)c1ccc(Nc2nc(OC3CCCC3)c3c(-c4ccc5nc(C)oc5c4)c[nH]c3n2)c(OC)c1
inactive: viability, T/C [7] 103% | viability, T/C [8] 94.2% | viability, T/C [9] 84.8% | viability, T/C [10] 100% | viability, T/C [11] 98.7% | viability, T/C [12] 98.8% | viability, T/C [13] 71.2% | viability, T/C [14] 63.2% | viability, T/C [15] 51.5% | viability, T/C [16] 53.5% | viability, T/C [17] 61.7% | viability, T/C [18] 59.3% | viability, T/C [19] 55.8% | viability, T/C [20] 52.9% | viability, T/C [21] 50.2% | viability, T/C [22] 53.4% | viability, T/C [23] 47.5% | viability, T/C [24] 44.1% | viability, T/C [25] 46% | viability, T/C [26] 45.6% | viability, T/C [27] 47.4% | viability, T/C [28] 50.9% | viability, T/C [29] 44.9% | viability, T/C [30] 52.3% | viability, T/C [31] 51.6% | viability, T/C [32] 43.1% | viability, T/C [33] 47.5% | viability, T/C [34] 39.2% | viability, T/C [35] 40.3% | viability, T/C [36] 28.5% | viability, T/C [37] 49.4% | viability, T/C [38] 42.4% | viability, T/C [39] 41.9% | viability, T/C [40] 41.4% | viability, T/C [41] 47.5% | viability, T/C [42] 29.7%
> 10 µM: IC50 [1] | IC50 [2]
< 0.0316 µM: IC50 [4] | IC50 [5] | IC50 [6]
1.35 µM: IC50 [3]

COc1c(OCCCN2CCOCC2)ccc2c3n(c(=NC(=O)c4cnc(N)nc4)nc12)CCN3 + CN1CCN(c2cc(C(=O)Nc3cc4cc(-c5cnn(C)c5)ccc4cn3)ccn2)CC1
inactive: viability, T/C (second compound 0.0316 µM, first compound 0.00316 µM) 77% | viability, T/C (second compound 0.0316 µM, first compound 0.01 µM) 67.5% | viability, T/C [7] 34.4% | viability, T/C [8] 34.8% | viability, T/C [9] 18.3% | viability, T/C (second compound 0.1 µM, first compound 0.00316 µM) 54.5% | viability, T/C (second compound 0.1 µM, first compound 0.01 µM) 51.3% | viability, T/C [13] 34.6% | viability, T/C [14] 16.8% | viability, T/C (second compound 0.316 µM, first compound 0.00316 µM) 35.2% | viability, T/C (second compound 0.316 µM, first compound 0.01 µM) 21.1% | viability, T/C [19] 11.8%
0.0211 µM: IC50 [1]
active: viability, T/C [10] 7.77% | viability, T/C [15] 13.2% | viability, T/C [16] 2.93% | viability, T/C [20] 9.4% | viability, T/C [21] 5.28% | viability, T/C [22] 1.37% | viability, T/C (second compound 1 µM, first compound 0.00316 µM) 9.4% | viability, T/C (second compound 1 µM, first compound 0.01 µM) 8.16% | viability, T/C [25] 8.92% | viability, T/C [26] 6.58% | viability, T/C [27] 5.37% | viability, T/C [28] 4.98% | viability, T/C (second compound 3.16 µM, first compound 0.00316 µM) 5.32% | viability, T/C (second compound 3.16 µM, first compound 0.01 µM) 5.77% | viability, T/C [31] 8.53% | viability, T/C [32] 6.16% | viability, T/C [33] 7.48% | viability, T/C [34] 4.29% | viability, T/C (second compound 10 µM, first compound 0.00316 µM) 7.43% | viability, T/C (second compound 10 µM, first compound 0.01 µM) 2.01% | viability, T/C [37] 3.89% | viability, T/C [38] 2.57% | viability, T/C [39] 3.58% | viability, T/C [40] 2.62%
0.009 µM: IC50 [2]
< 0.00316 µM: IC50 [3] | IC50 [4] | IC50 [5] | IC50 [6]

COC1C=CCC(C)C(C)S(=O)(=O)NC(=O)c2ccc3c(c2)N(CC2CCC21)CC1(CCCc2cc(Cl)ccc21)CO3 (configuration not stated) + CN1CCN(c2cc(C(=O)Nc3cc4cc(-c5cnn(C)c5)ccc4cn3)ccn2)CC1
< 0.0316 µM: IC50 [3] | IC50 [4] | IC50 [5] | IC50 [6]
active: viability, T/C [25] 7.48% | viability, T/C [26] 5.89% | viability, T/C [27] 7.05% | viability, T/C [28] 7.13% | viability, T/C [29] 5.61% | viability, T/C [30] 7.24% | viability, T/C [31] 5.37% | viability, T/C [32] 6.94% | viability, T/C [33] 7.7% | viability, T/C [34] 7.72% | viability, T/C [35] 7.14% | viability, T/C [36] 6.03% | viability, T/C [37] 3.03% | viability, T/C [38] 1.85% | viability, T/C [39] 2.06% | viability, T/C [40] 6.57% | viability, T/C [41] 2.43% | viability, T/C [42] 1.39%
inactive: viability, T/C [7] 95.5% | viability, T/C [8] 89.9% | viability, T/C [9] 83.1% | viability, T/C [10] 51.5% | viability, T/C [11] 55% | viability, T/C [12] 40.1% | viability, T/C [13] 85% | viability, T/C [14] 68.4% | viability, T/C [15] 63.3% | viability, T/C [16] 40.8% | viability, T/C [17] 46.4% | viability, T/C [18] 43.6% | viability, T/C [19] 36.8% | viability, T/C [20] 34% | viability, T/C [21] 30.2% | viability, T/C [22] 20.7% | viability, T/C [23] 13.6% | viability, T/C [24] 13.3%
0.773 µM: IC50 [2]
1.75 µM: IC50 [1]

COc1ccc([C@@H](O)c2cc(-c3ncnc4cc(N5CCOCC5)ccc34)c(F)cc2Cl)nn1 + CNC(=O)c1ccc(Nc2nc(OC3CCCC3)c3c(-c4ccc5nc(C)oc5c4)c[nH]c3n2)c(OC)c1
inactive: viability, T/C [7] 83.7% | viability, T/C [8] 80.5% | viability, T/C [9] 78.1% | viability, T/C [10] 61.8% | viability, T/C [11] 42.3% | viability, T/C [12] 35% | viability, T/C [13] 54.5% | viability, T/C [14] 47.7% | viability, T/C [15] 49.6% | viability, T/C [16] 48.4% | viability, T/C [17] 41.9% | viability, T/C [18] 33.8% | viability, T/C [19] 47.5% | viability, T/C [20] 41.4% | viability, T/C [21] 41.7% | viability, T/C [22] 39% | viability, T/C [23] 39.4% | viability, T/C [24] 29.7% | viability, T/C [25] 46.8% | viability, T/C [26] 42.9% | viability, T/C [27] 41.7% | viability, T/C [28] 29.6% | viability, T/C [29] 36.4% | viability, T/C [30] 31.4% | viability, T/C [31] 33.2% | viability, T/C [32] 39.5% | viability, T/C [33] 34.4% | viability, T/C [34] 37.4% | viability, T/C [35] 38.4% | viability, T/C [36] 21% | viability, T/C [37] 45.1% | viability, T/C [38] 41.7% | viability, T/C [39] 32.2% | viability, T/C [40] 36.1% | viability, T/C [41] 27.8% | viability, T/C [42] 18.9%
2.01 µM: IC50 [1]
0.26 µM: IC50 [2]
< 0.0316 µM: IC50 [3] | IC50 [4] | IC50 [5] | IC50 [6]

C=CC(=O)N1CCN(c2nc(=O)n(-c3c(C)ccnc3C(C)C)c3nc(-c4c(O)cccc4F)c(F)cc23)C(C)C1 (configuration not stated) + CNC(=O)c1ccc(Nc2nc(OC3CCCC3)c3c(-c4ccc5nc(C)oc5c4)c[nH]c3n2)c(OC)c1
< 0.0316 µM: IC50 [4] | IC50 [5] | IC50 [6]
inactive: viability, T/C [7] 80% | viability, T/C [8] 105% | viability, T/C [9] 84.1% | viability, T/C [10] 105% | viability, T/C [11] 127% | viability, T/C [12] 125% | viability, T/C [13] 61.9% | viability, T/C [14] 64.2% | viability, T/C [15] 60% | viability, T/C [16] 59.7% | viability, T/C [17] 75.8% | viability, T/C [18] 81.1% | viability, T/C [19] 52.6% | viability, T/C [20] 59.9% | viability, T/C [21] 60.2% | viability, T/C [22] 62.9% | viability, T/C [23] 63.7% | viability, T/C [24] 67% | viability, T/C [25] 49.9% | viability, T/C [26] 47% | viability, T/C [27] 47.1% | viability, T/C [28] 58.4% | viability, T/C [29] 59.6% | viability, T/C [30] 59.8% | viability, T/C [31] 39.7% | viability, T/C [32] 45.9% | viability, T/C [33] 51.5% | viability, T/C [34] 50.4% | viability, T/C [35] 54.7% | viability, T/C [36] 53% | viability, T/C [37] 48.6% | viability, T/C [38] 37.7% | viability, T/C [39] 47.1% | viability, T/C [40] 44.9% | viability, T/C [41] 44.7% | viability, T/C [42] 44%
> 10 µM: IC50 [1] | IC50 [2] | IC50 [3]
